According to publication PMC10610379, “Epidrugs as Promising Tools to Eliminate Plasmodium falciparum Artemisinin-Resistant and Quiescent Parasites” (Pharmaceutics, 2023):
Several values for one entry are separate records, joined by “and”; a condition that tells them apart may be missing. Equal entries are not always repeated.

How the values were obtained:
Jurkat = details: read-out: Cytotoxicity: CC50 (Jurkat), data from literature ref 41; cited from earlier work
H4ac4 = experiment: Immunoblotting, histone mark abundance in F32-ART parasites; type: cell-based, Plasmodium falciparum; details: 90nM
Protocol: (§1) Abundance of methylated and acetylated histone was determined in parasite cultures in different conditions: “not-treated”, “DHA 24 h”, “DHA 6 h/DHA 24 h” and “DHA 6 h/DHA + compound to be tested 24 h”. At the end of the treatments, parasite cultures were washed in RPMI-1640 and then twice in PBS 1× before red blood cell lysis with 0.075% saponin (Sigma-Aldrich) in PBS. Parasite ghosts were washed 3 times in PBS before incubating the ghosts with E1A lysis buffer (50 mM Hepes pH 7.5; 250 mM NaCl; 5 mM EDTA; 0.1% Triton X-100, 1 mM DTT, 0.2 mM PMSF supplemented with complete Mini EDTA-free protease inhibitor cocktail (Roche®, Basel, Switzerland)) for 15 min. Ghosts were then sonicated for 3 × 15s ON/OFF cycles to shear parasite membranes. Debris were pelleted by centrifuging for 15 min at 13,800× g and 4 °C, and supernatants (containing parasitic proteins) were then collected. Protein concentrations were determined using BCA assay (Bio-Rad, Hercules, CA, USA) according to the manufacturer’s instructions. For each sample, 10 µg of proteins were mixed with 4× sample buffer (10 mL 50% Glycerol, 5 mL 0.5 M Tris HCl pH 6.8, 4 mL 20% SDS, 0.02% Bromophenol blue for a total solution volume of 20 mL) and 100 mM DTT and then separated on 15% SDS-PAGE gels in Laemmli running buffer. Gels were then wet-transferred O/N at 20 V onto PVDF membranes. Membranes were blocked in TBST for 1 h at room temperature. Bottom parts were then probed with histone antibodies while upper parts were probed with PFALDOLASE antibody (Abcam, ab38905, Cambridge, UK) at 1:20,000 dilution. The following primary antibodies were used: anti-H3K4me1 (Abcam, ab8895); anti-H3K4me2 (Abcam, ab35356); anti-H3K9me2 (Abcam, ab1220); anti-H3K9me3 (Millipore, 07-442, Burlington, MA, USA); anti-tetra-acetyl H4 (Millipore, 06-866); anti-H4K8Ac (Millipore, 07-328); anti-H4K20me3 (Abcam, ab9053); anti-H3K4me3 (Diagenode) and anti-H3K9Ac (Millipore, 07-352) at 1:10,000. The following secondary antibodies were used: anti-rabbit IgG-Peroxidase produced in goat (Sigma-Aldrich) or anti-mouse IgG-Peroxidase (Sigma-Aldrich); at 1:20,000 dilutions. Blots were developed using ECL Prime Western Blotting (GE Healthcare, Chicago, IL, USA) and read on a Chemidoc touch imaging software. Densitometry analysis was performed by using ImageLab software from Bio-Rad. To determine if variations in histone abundances were statistically significant, immunoblotting experiments were performed on 3 biological replicates and each run was performed twice.

H4K8ac = experiment: as above; type: cell-based, Plasmodium falciparum; details: 90nM
Protocol: as §1

[1] = test system: ART-resistant parasites F32-ART at the quiescent stage; experiment: Modified QSA, 24-h exposure; type: cell-based, Plasmodium falciparum; details: DHA 700 nM, compound at its IC90, 24-h exposure
Protocol: Epidrugs were tested at their IC90 values. In the present study, quiescence was induced using 3 µM of ART or 700 nM of DHA [28]. Thus, D-sorbitol synchronized ring-stage parasites at 3% parasitemia and 2% hematocrit (5 mL of culture per well in 6-well plates) were first exposed to 6 h of ART or DHA to induce quiescence and then to 48 h of the combination “ART or DHA + compound to be tested”. The combinations “ART 6 h/ART 48 h” or “DHA 6 h/DHA 48 h” were used as controls. The compounds were evaluated, in parallel, on proliferating parasites, i.e., without any pre-treatment. […] The parasitemia for each condition was then microscopically monitored every 2 days. […] When relevant, statistical significance between results obtained for the conditions “ART/ART” and “ART/ART + compound to be tested” or “DHA/DHA” and “DHA/DHA + compound to be tested” was determined by a Log Rank (Mantel Cox) test using GraphPad Prism version 7.05. […]
To collect enough material for immunoblotting, we performed the analysis after a 24-h exposure of DHA-treated parasites to the epidrug and in parallel evaluated the activity of the three epidrugs in a modified QSA, in which quiescent parasites were exposed to the drug to be tested for 24 instead of 48 h, as in our previous experiments (Figure 2).

[2] = test system: Plasmodium falciparum F32-ART (artemisinin-resistant strain); experiment: Standard chemosensitivity assay (SYBR Green I), F32-ART; type: cell-based; details: for IC50: Plasmodium falciparum, F32-ART, 48 h incubation, SYBR Green I, mean ± SEM of 3 experiments (* mean of 2), read-out: Antiplasmodial Activity: IC50, F32-ART; for Selectivity Index CC50/IC50: ratio cytotoxicity (mammalian cell type of the CC50)/antiplasmodial activity on F32-ART
Method in brief: (§2)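 Both parasite lines grown at 2% hematocrit in human red cells with 5% human serum, 37 °C, 5% CO2, then exposed to drug for 48 h in triplicate.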

[3] = test system: Plasmodium falciparum F32-TEM (artemisinin-sensitive twin line); experiment: Standard chemosensitivity assay (SYBR Green I), F32-TEM; type: cell-based; details: Plasmodium falciparum; F32-TEM, 48 h incubation, SYBR Green I; mean ± SEM of 3 experiments (* mean of 2); read-out: Antiplasmodial Activity: IC50, F32-TEM
Method in brief: as §2

[4] = test system: ART-resistant parasites F32-ART at the quiescent stage; experiment: Quiescent-stage Survival Assay (QSA), 48-h exposure; type: cell-based, Plasmodium falciparum
Protocol: The sensitivity of the ART-resistant parasites F32-ART at the quiescent stage towards the different molecules was determined using the QSA (Quiescent-stage Survival Assay), as previously described.
Epidrugs were tested at their IC90 values. In the present study, quiescence was induced using 3 µM of ART or 700 nM of DHA [28]. Thus, D-sorbitol synchronized ring-stage parasites at 3% parasitemia and 2% hematocrit (5 mL of culture per well in 6-well plates) were first exposed to 6 h of ART or DHA to induce quiescence and then to 48 h of the combination “ART or DHA + compound to be tested”. The combinations “ART 6 h/ART 48 h” or “DHA 6 h/DHA 48 h” were used as controls. The compounds were evaluated, in parallel, on proliferating parasites, i.e., without any pre-treatment. After drug exposure, parasite cultures were washed with 40 mL of RPMI-1640 medium and cultured in drug-free conditions supplemented with 10% human serum in new wells. The parasitemia for each condition was then microscopically monitored every 2 days. Culture media were renewed twice a week and 25 µL of fresh red blood cells were added once a week. Obtained data were used to perform Kaplan–Meier survival analyses considering censored data. The outcome was defined as the day when parasite cultures reached the initial parasitemia (3%) and data were considered as censored if no parasite recrudescence was observed during the 30-day experiment timeframe. When relevant, statistical significance between results obtained for the conditions “ART/ART” and “ART/ART + compound to be tested” or “DHA/DHA” and “DHA/DHA + compound to be tested” was determined by a Log Rank (Mantel Cox) test using GraphPad Prism version 7.05. For the best compounds targeting histones, in order to compare western blots data, modified QSAs were carried out by comparing “DHA 6 h/DHA 24 h” versus “DHA 6 h/DHA + compound to be tested 24 h”.

661W = test system: 661W; set-up: method as in PMID 29048427; details: data from literature ref 44, read-out: Cytotoxicity: CC50 (661W); cited from earlier work
[5] = 24 h, F32-ART ring stage proliferating, 3 replicates (Fig 3A)
[6] = DHA 6 h/DHA + apicidin 24 h, F32-ART DHA-treated parasites, 3 replicates (Fig 3E)

SMILES	CC50 (Jurkat) [µM]	Fold change of H4ac4 abundance, apicidin vs DMSO (H4ac4; [5])	Fold change of H4ac4 abundance, apicidin, quiescent stage (H4ac4; [6])	Fold change of H4K8ac abundance, apicidin vs DMSO (H4K8ac; [5])	Fold change of H4K8ac abundance, apicidin, quiescent stage (H4K8ac; [6])	Recrudescence in modified QSA, DHA 6 h/DHA + compound 24 h vs DHA 6 h/DHA 24 h [1]	IC50 [2] [µM]	Selectivity Index CC50/IC50 [2]	IC50 [3] [µM]	Delay in parasite recrudescence time (difference between median recrudescence times), ART/ART + compound vs ART/ART ([4]; quiescence induced with ART 3 µM 6 h, then 48 h ART + compound at its IC90) [days]	Delay in recrudescence time, DHA/DHA + compound vs DHA/DHA ([4]; quiescence induced with DHA 700 nM 6 h, then 48 h DHA + compound at its IC90)	CC50 (661W) [µM]
CCC(=O)CCCCC[C@@H]1NC(=O)[C@H]2CCCCN2C(=O)[C@H]([C@@H](C)CC)NC(=O)[C@H](Cc2cn(OC)c3ccccc23)NC1=O [Apicidin]	10	increase and 1.70 and 1.40 and 1.39	increase and 2.21 and 2.92 and 2.08	0.98 and 1.16 and 0.96	increase and 1.81 and 2.83 and 2.40	no difference in recrudence time	0.036 ± 0.009	280	0.036 ± 0.005	8	slightly shorter delay	–
CN1CCc2c(c3ccccc3n2Cc2ccc(C(=O)NO)cc2)C1 [Tubastatin A]	–	–	–	–	–	–	7	>1.4	8	–	–	> 10
